Experiments:
[1] = Removal of additive from remaining solution after precipitation by ultrafiltration (Example 25); type: physicochemical; details: initial [additive] 30.4 mM
[2] = Use of additives to improve separation of Nd/Dy mixture by precipitation with L5 (Example 18); type: physicochemical; details: 11 mM L5
Method: Stock solutions were pipetted into plastic 1×1 cm cuvettes to prepare reaction mixtures with concentrations as follows: • 1. […] 5 mM NdCl3 • 3. 5 mM DyCl3 • 4. 500 mM MOPS pH=7 • 5. the additive of interest, in a variable concentration; if possible, stock solutions were prepared from Na^+ salt forms of the compound; if not, the stock solutions were titrated by NaOH/HCl to pH=7 prior to addition (see Table 12 for additives and concentrations)
These aqueous reaction mixtures, each prepared to a total volume of 2.0 mL with the addition of water as necessary, were mixed by the use of a PTFE-coated stir bar on a magnetic stirrer. The cuvettes were sealed with transparent tape to prevent evaporation overnight. The reaction mixtures were stirred for 18 hours, at which point 500 μL aliquots of each reaction mixture were transferred into plastic 2 mL Eppendorf tubes and centrifuged. The supernatants were carefully pipetted out and transferred to a new set of tubes. The precipitate was dissolved by addition of 500 μL 1M HCl. The absolute concentration of Nd and Dy in each supernatant and precipitate was determined by ICP-OES.

% of initial [additive] in filtrate [1]: 3%
Precipitate concentration [mM] Dy ([2]; additive 5 mM): 2.59 mM
Precipitate concentration [mM] Nd ([2]; additive 5 mM): 4.32 mM
Supernatant concentration [mM] Dy ([2]; additive 5 mM): 1.55 mM
Supernatant concentration [mM] Nd ([2]; additive 5 mM): 0.10 mM
Precipitate concentration [mM] Dy ([2]; additive 10 mM): 1.50 mM
Precipitate concentration [mM] Nd ([2]; additive 10 mM): 4.03 mM
Supernatant concentration [mM] Dy ([2]; additive 10 mM): 3.03 mM
Supernatant concentration [mM] Nd ([2]; additive 10 mM): 0.19 mM
Precipitate concentration [mM] Dy ([2]; additive 15 mM): 1.18 mM
Precipitate concentration [mM] Nd ([2]; additive 15 mM): 4.33 mM
Supernatant concentration [mM] Dy ([2]; additive 15 mM): 3.37 mM
Supernatant concentration [mM] Nd ([2]; additive 15 mM): 0.33 mM
Precipitate concentration [mM] Dy ([2]; additive 20 mM): 0.81 mM
Precipitate concentration [mM] Nd ([2]; additive 20 mM): 3.78 mM
Supernatant concentration [mM] Dy ([2]; additive 20 mM): 3.69 mM
Supernatant concentration [mM] Nd ([2]; additive 20 mM): 0.60 mM
Structure (SMILES): CC(C)(O)C(=O)O [α-HIBA, alpha-hydroxyisobutyric acid]

Reference: patent US20230356105A1, “TETRAAZADODECANE BASED CHELATING AGENTS FOR SEPARATION OF RARE EARTH ELEMENTS AND METHOD THEREFOR” (Ustav Organicke Chemie a Biochemie AV CR V.V.I., priority 2020, published 2023)
